# Experimental data reported in patent publication US20230270825A1, “STAPLED OLEFIN CO-AGONISTS OF THE GLUCAGON AND GLP-1 RECEPTORS” (Merck Sharp & Dohme LLC, priority 2019, published 2023).
# pEC50: −log10 of the molar value. Numbered stars: 1 amine (or outer) side, 2 acyl side, 3 side chain; on linkers, the order of the positions; unused ones are H or OH. Bridge positions count the residues as written; N and C are the ends. Square brackets hold non-standard residues; d marks the D form. Side chains are listed from the residue outwards. Peptide text beside a SMILES is read from it. * marks the point of attachment. Nle(6-ylidene) = O=C([C@H](CCCC=[*:3])N[*:1])[*:2]; S7 = C[C@@](CCCCCC=[*:3])(N[*:1])C(=O)[*:2]; X1 = C[C@](CCCCC=[*:3])(N[*:1])C(=O)[*:2]; γGlu = O=C(O)[C@H](CCC(=O)[*:2])N[*:1]; Palmitoyl = CCCCCCCCCCCCCCCC(=O)*; S5 = C=CCCC[C@](C)(N)C(=O)O
# Molecular target: T1, human GCGR (Homo sapiens, UniProt P47871)
# T1 construct: expressed in transfected cells; assay-ready frozen cells grown with Blasticidin and Hygromycin
# T1 sequence (P47871 26-477): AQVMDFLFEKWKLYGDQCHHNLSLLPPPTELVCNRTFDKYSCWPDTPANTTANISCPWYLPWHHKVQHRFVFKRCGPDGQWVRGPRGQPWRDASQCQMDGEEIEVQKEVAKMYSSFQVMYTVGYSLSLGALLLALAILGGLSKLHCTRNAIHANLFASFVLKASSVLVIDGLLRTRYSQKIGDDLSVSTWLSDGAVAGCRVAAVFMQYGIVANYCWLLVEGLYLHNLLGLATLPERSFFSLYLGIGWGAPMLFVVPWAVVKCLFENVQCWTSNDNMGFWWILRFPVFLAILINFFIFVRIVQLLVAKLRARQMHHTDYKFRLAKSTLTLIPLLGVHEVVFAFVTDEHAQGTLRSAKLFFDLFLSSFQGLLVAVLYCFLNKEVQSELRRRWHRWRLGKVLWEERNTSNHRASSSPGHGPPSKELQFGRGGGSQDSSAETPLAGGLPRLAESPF
# Test: cAMP activity assay, cells expressing human GCGR (HitHunter cAMP XS)
# Format: cell-based
# Conditions: for hGCGR/hGLP1R (hTone): ratio of human GCGR EC50 to human GLP1R EC50; for pEC50: cAMP production, 1 hour at room temperature, assay buffer with or without 20% human serum (not stated which)
# Description: Activity of the peptides at the Glucagon receptor (GCGR) and GLP-1 receptor (GLP1R) was measured in a cAMP activity assay.
# Peptides were dissolved in 100% DMSO and serially diluted to generate 10 point titrations. The peptide solutions were then transferred into 384-well assay plates (150 nL/well).
# Assay ready frozen cells expressing human GLP1R or human GCGR were suspended in growth media consisting of DMEM medium (GIBCO), 10% FBS (GIBCO), 1x NEAA(GIBCO), 1x P/S (GIBCO), 10ug/ml Blasticidin (GIBCO) and 200 µg/mL Hygromycin (GIBCO). Cells were then diluted in assay buffer consisting of PBS (GIBCO), 7.5% BSA (Perkin Elmer), 100 µM RO 20-1724 (Sigma), with or without 20% human serum (MP Biomedical). The cell suspensions (15 µL) were then added to the assay plates containing the peptide solutions (30,000 cells/well for human GCGR; 10.000 cells/well for human GLP1R). The cells were incubated for 1 hour at room temperature in the dark. Production of cAMP was determined using HitHunter™ cAMPXS kits (DiscoverX) following manufacturer protocol. The plates were incubated for overnight at room temperature in the dark. Luminescence was measured using an EnVision Multilabel plate reader (Perkin Elmer). Native GLP-1 and Glucagon (Bachem) are used as control peptides. EC50 values were calculated using uses a 4 parameter logistic fit based on the Levenberg-Marquardt algorithm.
Structure (SMILES),hGCGR/hGLP1R (hTone),pEC50
CCCCCCCCCCCCCCCC(=O)N[C@@H](CCC(=O)N[C@@H](CCC(=O)NCCCC[C@H](NC(=O)[C@H](CC(=O)O)NC(=O)[C@H](CO)NC(=O)[C@@H](NC(=O)[C@H](Cc1ccccc1)NC(=O)[C@@H](NC(=O)CNC(=O)[C@H](CCC(N)=O)NC(=O)[C@@H](CO)NC(=O)[C@@H](N)Cc1c[nH]cn1)[C@@H](C)O)[C@@H](C)O)C(=O)N[C@@H](CO)C(=O)N[C@@H](CCCCN)C(=O)N[C@@H](Cc1ccc(O)cc1)C(=O)N[C@@H](CC(C)C)C(=O)N[C@@H](CC(=O)O)C(=O)N[C@@H](CCC(=O)O)C(=O)N[C@@H](CCCNC(=N)N)C(=O)N[C@@H](C)C(=O)N[C@@H](C)C(=O)N[C@H]1CCCC=CCCC[C@@H](C(=O)N[C@@H](Cc2c[nH]c3ccccc23)C(=O)N[C@@H](CC(C)C)C(=O)N[C@@H](CC(C)C)C(=O)N[C@@H](CC(=O)O)C(=O)N[C@H](C(N)=O)[C@@H](C)O)NC(=O)[C@H](C(C)C)NC(=O)[C@H](Cc2ccccc2)NC(=O)[C@H](CC(=O)O)NC1=O)C(=O)O)C(=O)O [compound 15] (H-H[dS]QGTFTSDK([γGlu-γGlu-Palmitoyl])SKYLDERAA[Nle(6-ylidene)]DFV[Nle(6-ylidene)]WLLDT-NH2; staple 20-24),0.44,–
CC(C)C[C@H](NC(=O)[C@H](Cc1ccc(O)cc1)NC(=O)[C@H](CCCCN)NC(=O)[C@H](CO)NC(=O)[C@H](CCCCN)NC(=O)[C@H](CC(=O)O)NC(=O)[C@H](CO)NC(=O)[C@@H](NC(=O)[C@H](Cc1ccccc1)NC(=O)[C@@H](NC(=O)CNC(=O)[C@H](CCC(N)=O)NC(=O)[C@@H](CO)NC(=O)[C@@H](N)Cc1c[nH]cn1)[C@@H](C)O)[C@@H](C)O)C(=O)N[C@@H](CC(=O)O)C(=O)N[C@@H](CCC(=O)O)C(=O)N[C@@H](CCCNC(=N)N)C(=O)N[C@@H](C)C(=O)N[C@@H](C)C(=O)N[C@]1(C)CCCCC=CCCCCC[C@@](C)(C(=O)N[C@@H](CC(=O)O)C(=O)N[C@H](C(N)=O)[C@@H](C)O)NC(=O)[C@H](CC(C)C)NC(=O)[C@H](Cc2c[nH]c3ccccc23)NC(=O)[C@H](CCC(N)=O)NC(=O)[C@H](C(C)C)NC(=O)[C@H](Cc2ccccc2)NC(=O)[C@H](CC(=O)O)NC1=O [compound 11] (H-H[dS]QGTFTSDKSKYLDERAA[X1]DFVQWL[S7]DT-NH2; staple 20-27),1.82,8.30
CC(C)C[C@H](NC(=O)[C@H](Cc1ccc(O)cc1)NC(=O)[C@H](CCCCN)NC(=O)[C@H](CO)NC(=O)[C@H](CCCCN)NC(=O)[C@H](CC(=O)O)NC(=O)[C@H](CO)NC(=O)[C@@H](NC(=O)[C@H](Cc1ccccc1)NC(=O)[C@@H](NC(=O)CNC(=O)[C@H](CCC(N)=O)NC(=O)[C@@H](CO)NC(=O)[C@@H](N)Cc1c[nH]cn1)[C@@H](C)O)[C@@H](C)O)C(=O)N[C@@H](CC(=O)O)C(=O)N[C@@H](CCC(=O)O)C(=O)N[C@@H](CCCNC(=N)N)C(=O)N[C@@H](C)C(=O)N[C@@H](C)C(=O)N[C@H]1CCCC=CCCC[C@@H](C(=O)N[C@@H](Cc2c[nH]c3ccccc23)C(=O)N[C@@H](CC(C)C)C(=O)N[C@@H](CC(C)C)C(=O)N[C@@H](CC(=O)O)C(=O)N[C@H](C(N)=O)[C@@H](C)O)NC(=O)[C@H](C(C)C)NC(=O)[C@H](Cc2ccccc2)NC(=O)[C@H](CC(=O)O)NC1=O [compound 17] (H-H[dS]QGTFTSDKSKYLDERAA[Nle(6-ylidene)]DFV[Nle(6-ylidene)]WLLDT-NH2; staple 20-24),1.42,–
CC(C)C[C@H](NC(=O)[C@H](Cc1ccc(O)cc1)NC(=O)[C@H](CCCCN)NC(=O)[C@H](CO)NC(=O)[C@H](CCCCN)NC(=O)[C@H](CC(=O)O)NC(=O)[C@H](CO)NC(=O)[C@@H](NC(=O)[C@H](Cc1ccccc1)NC(=O)[C@@H](NC(=O)CNC(=O)[C@H](CCC(N)=O)NC(=O)[C@@H](CO)NC(=O)[C@@H](N)Cc1c[nH]cn1)[C@@H](C)O)[C@@H](C)O)C(=O)N[C@@H](CC(=O)O)C(=O)N[C@@H](CCC(=O)O)C(=O)N[C@@H](CCCNC(=N)N)C(=O)N[C@@H](C)C(=O)N[C@@H](C)C(=O)N[C@@]1(C)CCCC=CCCC[C@@](C)(C(=O)N[C@@H](Cc2c[nH]c3ccccc23)C(=O)N[C@@H](CC(C)C)C(=O)N[C@@H](CC(C)C)C(=O)N[C@@H](CC(=O)O)C(=O)N[C@H](C(N)=O)[C@@H](C)O)NC(=O)[C@H](C(C)C)NC(=O)[C@H](Cc2ccccc2)NC(=O)[C@H](CC(=O)O)NC1=O [compound 19] (H-H[dS]QGTFTSDKSKYLDERAA[S5]DFV[S5]WLLDT-NH2; staple 20-24),0.77,–
CCCCCCCCCCCCCCCC(=O)N[C@@H](CCC(=O)N[C@@H](CCC(=O)NCCCC[C@H](NC(=O)[C@H](CC(=O)O)NC(=O)[C@H](CO)NC(=O)[C@@H](NC(=O)[C@H](Cc1ccccc1)NC(=O)[C@@H](NC(=O)CNC(=O)[C@H](CCC(N)=O)NC(=O)[C@@H](CO)NC(=O)[C@@H](N)Cc1c[nH]cn1)[C@@H](C)O)[C@@H](C)O)C(=O)N[C@@H](CO)C(=O)N[C@]1(C)CCCCC=CCCCCC[C@@](C)(C(=O)N[C@@H](CCC(N)=O)C(=O)N[C@@H](CC(=O)O)C(=O)N[C@@H](Cc2ccccc2)C(=O)N[C@H](C(=O)N[C@@H](CCC(N)=O)C(=O)N[C@@H](Cc2c[nH]c3ccccc23)C(=O)N[C@@H](CC(C)C)C(=O)N[C@@H](CC(C)C)C(=O)N[C@@H](CC(=O)O)C(=O)N[C@H](C(N)=O)[C@@H](C)O)C(C)C)NC(=O)[C@H](C)NC(=O)[C@H](CCCNC(=N)N)NC(=O)[C@H](CCC(=O)O)NC(=O)[C@H](CC(=O)O)NC(=O)[C@H](CC(C)C)NC(=O)[C@H](Cc2ccc(O)cc2)NC1=O)C(=O)O)C(=O)O [compound 7] (H-H[dS]QGTFTSDK([γGlu-γGlu-Palmitoyl])S[X1]YLDERA[S7]QDFVQWLLDT-NH2; staple 12-19),–,8.30
CCCCCCCCCCCCCCCC(=O)N[C@@H](CCC(=O)N[C@@H](CCC(=O)NCCCC[C@H](NC(=O)[C@H](CC(=O)O)NC(=O)[C@H](CO)NC(=O)[C@@H](NC(=O)[C@H](Cc1ccccc1)NC(=O)[C@@H](NC(=O)CNC(=O)[C@H](CCC(N)=O)NC(=O)[C@@H](CO)NC(=O)[C@@H](N)Cc1c[nH]cn1)[C@@H](C)O)[C@@H](C)O)C(=O)N[C@@H](CO)C(=O)N[C@@H](CCCCN)C(=O)N[C@@H](Cc1ccc(O)cc1)C(=O)N[C@@H](CC(C)C)C(=O)N[C@@H](CC(=O)O)C(=O)N[C@@H](CCC(=O)O)C(=O)N[C@@H](CCCNC(=N)N)C(=O)N[C@@H](C)C(=O)N[C@@H](C)C(=O)N[C@]1(C)CCCCC=CCCCCC[C@@](C)(C(=O)N[C@@H](CC(=O)O)C(=O)N[C@H](C(N)=O)[C@@H](C)O)NC(=O)[C@H](CC(C)C)NC(=O)[C@H](Cc2c[nH]c3ccccc23)NC(=O)[C@H](CCC(N)=O)NC(=O)[C@H](C(C)C)NC(=O)[C@H](Cc2ccccc2)NC(=O)[C@H](CC(=O)O)NC1=O)C(=O)O)C(=O)O [compound 10] (H-H[dS]QGTFTSDK([γGlu-γGlu-Palmitoyl])SKYLDERAA[X1]DFVQWL[S7]DT-NH2; staple 20-27),19.02,–
